PubChem BioAssay AID2060898 (Molecular Pharmacology Branch, DTP, NCI, 2025)

System: 616215-338-R-J1-PDC complex spheroid viability
Experiment: Anticancer human tumor 616215-338-R-J1-PDC patient-derived colon adenocarcinoma cell line growth inhibition [RAS]
Conditions: for IC50: curve of first compound; for viability, T/C: stronger effect = lower value; active = viability on the fitted dose curve at most 10% of control; inactive = the rest
How it was run: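 Agents were tested in combination matrices in half-log decrements from a top concentration at or near clinical Cmax (10 microM if undetermined). Targets were multi-cell spheroids of tumour lines plus HUVEC and MSC stromal cells.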

[1] = second compound 0.000949 µM, first compound 0.0316 µM
[2] = second compound 0.000949 µM, first compound 0.1 µM
[3] = second compound 0.000949 µM, first compound 0.316 µM
[4] = second compound 0.000949 µM, first compound 1 µM
[5] = second compound 0.000949 µM, first compound 3.16 µM
[6] = second compound 0.000949 µM, first compound 10 µM
[7] = second compound 0.003 µM, first compound 0.0316 µM
[8] = second compound 0.003 µM, first compound 0.1 µM
[9] = second compound 0.003 µM, first compound 0.316 µM
[10] = second compound 0.003 µM, first compound 1 µM
[11] = second compound 0.003 µM, first compound 3.16 µM
[12] = second compound 0.003 µM, first compound 10 µM
[13] = second compound 0.00949 µM, first compound 0.0316 µM
[14] = second compound 0.00949 µM, first compound 0.1 µM
[15] = second compound 0.00949 µM, first compound 0.316 µM
[16] = second compound 0.00949 µM, first compound 1 µM
[17] = second compound 0.00949 µM, first compound 3.16 µM
[18] = second compound 0.00949 µM, first compound 10 µM
[19] = second compound 0.03 µM, first compound 0.0316 µM
[20] = second compound 0.03 µM, first compound 0.1 µM
[21] = second compound 0.03 µM, first compound 0.316 µM
[22] = second compound 0.03 µM, first compound 1 µM
[23] = second compound 0.03 µM, first compound 3.16 µM
[24] = second compound 0.03 µM, first compound 10 µM
[25] = second compound 0.0949 µM, first compound 0.0316 µM
[26] = second compound 0.0949 µM, first compound 0.1 µM
[27] = second compound 0.0949 µM, first compound 0.316 µM
[28] = second compound 0.0949 µM, first compound 1 µM
[29] = second compound 0.0949 µM, first compound 3.16 µM
[30] = second compound 0.0949 µM, first compound 10 µM
[31] = second compound 0.3 µM, first compound 0.0316 µM
[32] = second compound 0.3 µM, first compound 0.1 µM
[33] = second compound 0.3 µM, first compound 0.316 µM
[34] = second compound 0.3 µM, first compound 1 µM
[35] = second compound 0.3 µM, first compound 3.16 µM
[36] = second compound 0.3 µM, first compound 10 µM
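Also: spheroids exposed to agents for seven days before viability readout.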
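For viability, T/C in this document: 100% = DMSO vehicle control viability.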

Cc1nc(N2CCC3(CC2)COC(C)C3N)c(CO)nc1Sc1ccnc(N)c1Cl (stereo unspecified) + CCn1c(-c2cc(N3CCN(C)CC3)cnc2C(C)OC)c2c3cc(ccc31)-c1csc(n1)CC(NC(=O)C1CC1C)C(=O)N1CCCC(N1)C(=O)OCC(C)(C)C2
1670 nM: IC50 (second compound 0.003 µM)
214 nM: IC50 (second compound 0.00949 µM)
> 10000 nM: IC50 (second compound 0.000949 µM)
inactive: viability, T/C [1] 123% | viability, T/C [2] 106% | viability, T/C [3] 85.6% | viability, T/C [4] 75.6% | viability, T/C [5] 63.1% | viability, T/C [6] 61.9% | viability, T/C [7] 118% | viability, T/C [8] 92.5% | viability, T/C [9] 66.4% | viability, T/C [10] 49.7% | viability, T/C [11] 54.9% | viability, T/C [12] 39.1% | viability, T/C [13] 71% | viability, T/C [14] 55.4% | viability, T/C [15] 46.9% | viability, T/C [16] 42.6% | viability, T/C [17] 44.2% | viability, T/C [18] 38% | viability, T/C [19] 43.8% | viability, T/C [20] 47.5% | viability, T/C [21] 46.9% | viability, T/C [22] 39.9% | viability, T/C [23] 45.5% | viability, T/C [24] 36.6% | viability, T/C [25] 38.9% | viability, T/C [26] 37.5% | viability, T/C [27] 40.6% | viability, T/C [28] 40.3% | viability, T/C [29] 44.2% | viability, T/C [30] 46.6% | viability, T/C [31] 36.7% | viability, T/C [32] 40.9% | viability, T/C [33] 47.3% | viability, T/C [34] 39.1% | viability, T/C [35] 44.7% | viability, T/C [36] 37.1%
< 31.6 nM: IC50 (second compound 0.03 µM) | IC50 (second compound 0.0949 µM) | IC50 (second compound 0.3 µM)

NC1c2ccccc2OC12CCN(c1cnc3c(N4CCCc5ncccc54)n[nH]c3n1)CC2 (stereo unspecified) + CCn1c(-c2cc(N3CCN(C)CC3)cnc2C(C)OC)c2c3cc(ccc31)-c1csc(n1)CC(NC(=O)C1CC1C)C(=O)N1CCCC(N1)C(=O)OCC(C)(C)C2
2240 nM: IC50 (second compound 0.000949 µM)
228 nM: IC50 (second compound 0.003 µM)
inactive: viability, T/C [1] 81.9% | viability, T/C [2] 69.7% | viability, T/C [3] 60% | viability, T/C [4] 55.5% | viability, T/C [5] 51.2% | viability, T/C [6] 40.2% | viability, T/C [7] 73.5% | viability, T/C [8] 60.6% | viability, T/C [9] 44.6% | viability, T/C [10] 41.9% | viability, T/C [11] 35.2% | viability, T/C [12] 37.1% | viability, T/C [13] 49.4% | viability, T/C [14] 48.4% | viability, T/C [15] 42.9% | viability, T/C [16] 42.2% | viability, T/C [17] 36.4% | viability, T/C [18] 31.1% | viability, T/C [19] 38.7% | viability, T/C [20] 34.9% | viability, T/C [21] 33.9% | viability, T/C [22] 40.1% | viability, T/C [23] 35.2% | viability, T/C [24] 30.5% | viability, T/C [25] 35.9% | viability, T/C [26] 42.6% | viability, T/C [27] 47.9% | viability, T/C [28] 42.2% | viability, T/C [29] 44.2% | viability, T/C [30] 34.6% | viability, T/C [31] 51.7% | viability, T/C [32] 40.5% | viability, T/C [33] 44.6% | viability, T/C [34] 41.1% | viability, T/C [35] 45.3% | viability, T/C [36] 32.4%
< 31.6 nM: IC50 (second compound 0.00949 µM) | IC50 (second compound 0.03 µM) | IC50 (second compound 0.0949 µM) | IC50 (second compound 0.3 µM)

Nc1ccn(C2OC(CO)C(O)C2(F)F)c(=O)n1 (stereo unspecified) + CCn1c(-c2cc(N3CCN(C)CC3)cnc2C(C)OC)c2c3cc(ccc31)-c1csc(n1)CC(NC(=O)C1CC1C)C(=O)N1CCCC(N1)C(=O)OCC(C)(C)C2
< 3.16 nM: IC50 (second compound 0.03 µM) | IC50 (second compound 0.0949 µM) | IC50 (second compound 0.3 µM)
active: viability, T/C [21] 8.72% | viability, T/C [22] 9.03% | viability, T/C [27] 9.83% | viability, T/C [28] 8.16% | viability, T/C [33] 9.28% | viability, T/C [34] 8.49%
3.62 nM: IC50 (second compound 0.00949 µM)
11.5 nM: IC50 (second compound 0.000949 µM)
7.36 nM: IC50 (second compound 0.003 µM)
inactive: viability, T/C (second compound 0.000949 µM, first compound 0.00316 µM) 96.2% | viability, T/C (second compound 0.000949 µM, first compound 0.01 µM) 53.7% | viability, T/C [1] 23.7% | viability, T/C [2] 13.8% | viability, T/C [3] 13.5% | viability, T/C [4] 15.7% | viability, T/C (second compound 0.003 µM, first compound 0.00316 µM) 80.8% | viability, T/C (second compound 0.003 µM, first compound 0.01 µM) 38.6% | viability, T/C [7] 20.2% | viability, T/C [8] 10.3% | viability, T/C [9] 11.4% | viability, T/C [10] 11% | viability, T/C (second compound 0.00949 µM, first compound 0.00316 µM) 52.9% | viability, T/C (second compound 0.00949 µM, first compound 0.01 µM) 28.8% | viability, T/C [13] 19.2% | viability, T/C [14] 9.65% | viability, T/C [15] 12.4% | viability, T/C [16] 10.4% | viability, T/C (second compound 0.03 µM, first compound 0.00316 µM) 33.8% | viability, T/C (second compound 0.03 µM, first compound 0.01 µM) 25.8% | viability, T/C [19] 18.5% | viability, T/C [20] 9.6% | viability, T/C (second compound 0.0949 µM, first compound 0.00316 µM) 31.6% | viability, T/C (second compound 0.0949 µM, first compound 0.01 µM) 22.4% | viability, T/C [25] 17.2% | viability, T/C [26] 7.8% | viability, T/C (second compound 0.3 µM, first compound 0.00316 µM) 37.6% | viability, T/C (second compound 0.3 µM, first compound 0.01 µM) 25.7% | viability, T/C [31] 21.4% | viability, T/C [32] 12.1%
